Measurements as given in patent US9695155B2, “Herbicidal substituted pyrimidinyloxy benzene compounds” (E. I. DU PONT DE NEMOURS AND COMPANY, priority 2013, dated 2017).

Tests used:
giant foxtail = assay: Test C postemergence; type: in vivo, Setaria faberii; settings: for Plant response rating (0 to 100), Foxtail, Giant: 0 is no effect, 100 is complete control; for Foxtail, Giant plant response rating: 31 g ai/ha; for Foxtail, Giant plant response rating / Plant response rating, Foxtail, Giant: scale 0 to 100 (0 no effect, 100 complete control)
Summary of the method: (§1)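 Seeds are planted in blended loam soil and sand and treated preemergence, while seedlings in a peat moss/vermiculite medium receive postemergence sprays at 2 to 18 cm height. All plants stay in the greenhouse for 13 to 15 days before visual comparison with controls on a 0–100 scale.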

wheat, winter = assay: Test C postemergence; type: in vivo, Triticum aestivum; settings: for Plant response rating (0 to 100), Wheat: 0 is no effect, 100 is complete control; for Wheat plant response rating: 31 g ai/ha; for Wheat plant response rating / Plant response rating, Wheat: scale 0 to 100 (0 no effect, 100 complete control)
Summary of the method: as §1

barnyardgrass = assay: Test A postemergence; type: in vivo, Echinochloa crus-galli; settings: for Barnyardgrass plant response rating: 125 g ai/ha
Summary of the method: (§2)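 Visual 0–100 rating (100 = complete control) taken about 10 d post-treatment relative to untreated checks. Preemergence: directed soil spray on sown loam/sand pots. Postemergence: seedlings 2–10 cm, 1–2 leaf. Non-phytotoxic solvent formulation with surfactant.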

corn [1] = assay: Test A postemergence; type: in vivo, Zea mays; settings: for Corn plant response rating: 125 g ai/ha
Summary of the method: as §2

velvetleaf = assay: Test A postemergence; type: in vivo, Abutilon theophrasti; settings: for Velvetleaf plant response rating: 125 g ai/ha
Summary of the method: as §2

johnsongrass = assay: Test C postemergence; type: in vivo, Sorghum halepense; settings: for Plant response rating (0 to 100), Johnsongrass: 0 is no effect, 100 is complete control; for Johnsongrass plant response rating: 31 g ai/ha; for Johnsongrass plant response rating / Plant response rating, Johnsongrass: scale 0 to 100 (0 no effect, 100 complete control)
Summary of the method: as §1

large (Lg) crabgrass [2] = assay: Test A preemergence; type: in vivo, Digitaria sanguinalis; settings: for Crabgrass, Large plant response rating (0 to 100 scale): 125 g ai/ha
Summary of the method: as §2

corn [3] = assay: Test C postemergence; type: in vivo, Zea mays; settings: for Plant response rating (0 to 100), Corn: 0 is no effect, 100 is complete control; for Corn plant response rating: 31 g ai/ha; for Corn plant response rating / Plant response rating, Corn: scale 0 to 100 (0 no effect, 100 complete control)
Summary of the method: as §1

large (Lg) crabgrass [4] = assay: Test C postemergence; type: in vivo, Digitaria sanguinalis; settings: for Plant response rating (0 to 100), Crabgrass, Large: 0 is no effect, 100 is complete control; for Crabgrass, Large plant response rating: 31 g ai/ha; for Crabgrass, Large plant response rating / Plant response rating, Crabgrass, Large: scale 0 to 100 (0 no effect, 100 complete control)
Summary of the method: as §1

yellow nutsedge = assay: Test C postemergence; type: in vivo, Cyperus esculentus; settings: for Plant response rating (0 to 100), Nutsedge, Yellow: 0 is no effect, 100 is complete control; for Nutsedge, Yellow plant response rating: 31 g ai/ha; for Nutsedge, Yellow plant response rating / Plant response rating, Nutsedge, Yellow: scale 0 to 100 (0 no effect, 100 complete control)
Summary of the method: as §1

[5] = postemergence, visual rating, 13 to 15 days
[6] = 125 g ai/ha, postemergence, visual rating
[7] = Postemergence, 62 g ai/ha, 13 to 15 days
[8] = 0 to 100 scale where 0 is no effect and 100 is complete control
[9] = 500 g ai/ha, 0 to 100 scale where 0 is no effect and 100 is complete control
[10] = 1000 g ai/ha, 0 to 100 scale, 0 no effect, 100 complete control

SMILES	Plant response rating (0 to 100), Foxtail, Giant (giant foxtail; 16 g ai/ha, postemergence)	Foxtail, Giant plant response rating (giant foxtail; [5])	Plant response rating, Foxtail, Giant (giant foxtail; [6])	Plant response rating, Foxtail, Giant (giant foxtail; [7])	Plant response rating (0 to 100), Wheat (wheat, winter; 16 g ai/ha, postemergence)	Wheat plant response rating (wheat, winter; [5])	Plant response rating, Wheat (wheat, winter; [6])	Plant response rating, Wheat (wheat, winter; [7])	Plant response rating (0 to 100), Johnsongrass (johnsongrass; 16 g ai/ha, postemergence)	Johnsongrass plant response rating (johnsongrass; [5])	Plant response rating, Johnsongrass (johnsongrass; [7])	Plant response rating (0 to 100), Corn (corn [3]; 16 g ai/ha, postemergence)	Corn plant response rating (corn [3]; [5])	Plant response rating, Corn (corn [3]; [7])	Plant response rating (0 to 100), Crabgrass, Large (large (Lg) crabgrass [4]; 16 g ai/ha, postemergence)	Crabgrass, Large plant response rating (large (Lg) crabgrass [4]; [5])	Plant response rating, Crabgrass, Large (large (Lg) crabgrass [4]; [7])	Plant response rating (0 to 100), Nutsedge, Yellow (yellow nutsedge; 16 g ai/ha, postemergence)	Nutsedge, Yellow plant response rating (yellow nutsedge; [5])	Plant response rating, Nutsedge, Yellow (yellow nutsedge; [7])	further results
Clc1cnc(Oc2cccc(Cl)c2-n2cc(Cl)cn2)nc1 [Compound 220]	0	5	5	10	0	0	0	0	5	0	5	5	10	10	5	5	5	10	0	0	Barnyardgrass plant response rating (barnyardgrass; [8]): 90; Plant response rating, Barnyardgrass (barnyardgrass; [9]): 100; Corn plant response rating (corn [1]; [8]): 40; Plant response rating, Corn (corn [1]; [9]): 70; Velvetleaf plant response rating (velvetleaf; [8]): 100; Plant response rating, Velvetleaf (velvetleaf; [9]): 100; Plant response rating, Johnsongrass (johnsongrass; [6]): 5; Crabgrass, Large plant response rating (0 to 100 scale) (large (Lg) crabgrass [2]): 100; Crabgrass, Large plant response rating (large (Lg) crabgrass [2]; [9]): 100; Plant response rating, Corn (corn [3]; [6]): 10; Plant response rating, Crabgrass, Large (large (Lg) crabgrass [4]; [6]): 5; Plant response rating, Nutsedge, Yellow (yellow nutsedge; [6]): 5
Clc1cnc(Oc2cccc(Br)c2-n2cc(Cl)cn2)nc1 [Compound 221]	0	5	5	5	0	0	0	0	5	5	5	0	5	10	5	5	5	0	0	5	Barnyardgrass plant response rating (barnyardgrass; [8]): 50; Plant response rating, Barnyardgrass (barnyardgrass; [9]): 100; Corn plant response rating (corn [1]; [8]): 10; Plant response rating, Corn (corn [1]; [9]): 50; Velvetleaf plant response rating (velvetleaf; [8]): 100; Plant response rating, Velvetleaf (velvetleaf; [9]): 100; Plant response rating, Johnsongrass (johnsongrass; [6]): 20; Crabgrass, Large plant response rating (0 to 100 scale) (large (Lg) crabgrass [2]): 100; Crabgrass, Large plant response rating (large (Lg) crabgrass [2]; [9]): 100; Plant response rating, Corn (corn [3]; [6]): 10; Plant response rating, Crabgrass, Large (large (Lg) crabgrass [4]; [6]): 25; Plant response rating, Nutsedge, Yellow (yellow nutsedge; [6]): 10
Clc1cnc(Oc2ccccc2-n2cc(I)nn2)nc1 [Compound 222]	5	5		5	0	0		5	0	10	10	5	5	0	5	5	5	5	5	5	Plant response rating (0 to 100), Foxtail, Giant (giant foxtail; 8 g ai/ha, postemergence): 0; Plant response rating (0 to 100), Wheat (wheat, winter; 8 g ai/ha, postemergence): 0; Plant response rating, Barnyardgrass (barnyardgrass; [10]): 100; Plant response rating, Corn (corn [1]; [10]): 50; Plant response rating, Velvetleaf (velvetleaf; [10]): 100; Plant response rating (0 to 100), Johnsongrass (johnsongrass; 8 g ai/ha, postemergence): 0; Crabgrass, Large plant response rating (large (Lg) crabgrass [2]; 1000 g ai/ha, 0 to 100 scale, 0 no effect, 100 complete control, approx. 10 days): 100; Plant response rating (0 to 100), Corn (corn [3]; 8 g ai/ha, postemergence): 0; Plant response rating (0 to 100), Crabgrass, Large (large (Lg) crabgrass [4]; 8 g ai/ha, postemergence): 5; Plant response rating (0 to 100), Nutsedge, Yellow (yellow nutsedge; 8 g ai/ha, postemergence): 0
